{"source": "paper PMC9710775", "about": "“Bitter taste sensitivity in domestic dogs (Canis familiaris) and its relevance to bitter deterrents of ingestion” (PLOS ONE, 2022)", "assay_in_all_cases": "calcium imaging (Cal520-AM), HEK293T cells", "type_in_all_cases": "cell-based", "key": {"[1]": {"molecular_target": "T1, dTas2r4 (Canis lupus, UniProt A0A8I3SCV7)", "T1 construct": "gene TAS2R4; HEK293T-PEAKrapid cells with Galpha16i/o44", "T1 sequence (A0A8I3SCV7 1-299)": "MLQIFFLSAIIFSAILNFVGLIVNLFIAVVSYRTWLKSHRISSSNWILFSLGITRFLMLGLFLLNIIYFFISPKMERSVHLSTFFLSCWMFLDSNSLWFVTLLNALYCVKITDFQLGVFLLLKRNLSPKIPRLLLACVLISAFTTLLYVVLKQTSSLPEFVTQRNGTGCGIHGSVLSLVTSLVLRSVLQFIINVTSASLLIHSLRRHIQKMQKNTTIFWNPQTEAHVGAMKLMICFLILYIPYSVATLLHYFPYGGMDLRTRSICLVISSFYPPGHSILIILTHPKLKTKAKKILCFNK", "text": "calcium imaging (Cal520-AM), HEK293T cells on dTas2r4"}, "[2]": {"molecular_target": "T2, dTas2r5 (Canis lupus, UniProt Q2ABD6)", "T2 construct": "gene TAS2R5; HEK293T-PEAKrapid cells with Galpha16i/o44", "T2 sequence (Q2ABD6 1-295)": "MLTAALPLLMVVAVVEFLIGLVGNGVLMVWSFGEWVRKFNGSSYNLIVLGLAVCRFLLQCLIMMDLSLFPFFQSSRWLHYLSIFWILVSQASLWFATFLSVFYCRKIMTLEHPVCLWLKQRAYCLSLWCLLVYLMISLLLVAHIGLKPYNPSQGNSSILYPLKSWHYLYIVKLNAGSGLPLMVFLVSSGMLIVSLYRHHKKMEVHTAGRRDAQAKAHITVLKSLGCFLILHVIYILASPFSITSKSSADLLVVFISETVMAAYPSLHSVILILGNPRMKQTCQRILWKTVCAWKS", "text": "calcium imaging (Cal520-AM), HEK293T cells on dTas2r5"}, "[3]": {"molecular_target": "T3, dTas2r1 (Canis lupus, UniProt Q2ABE0)", "T3 construct": "gene TAS2R1; HEK293T-PEAKrapid cells with Galpha16i/o44; gene on dog chromosome 34", "T3 sequence (Q2ABE0 1-297)": "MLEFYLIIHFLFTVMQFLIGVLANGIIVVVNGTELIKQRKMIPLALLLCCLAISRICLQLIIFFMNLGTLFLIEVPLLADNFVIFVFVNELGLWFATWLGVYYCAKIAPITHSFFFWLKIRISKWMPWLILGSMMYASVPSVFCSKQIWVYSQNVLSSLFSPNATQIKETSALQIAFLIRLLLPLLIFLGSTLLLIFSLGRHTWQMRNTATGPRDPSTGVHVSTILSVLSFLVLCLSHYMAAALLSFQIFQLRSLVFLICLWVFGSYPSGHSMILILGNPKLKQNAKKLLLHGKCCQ", "conditions": "agonist; Galpha16i/o44 cells; lowest concentration differing from mock cells; EC50 not determined", "text": "calcium imaging (Cal520-AM), HEK293T cells on dTas2r1"}, "[4]": {"molecular_target": "T4, dTas2r41 (Canis lupus, UniProt A0A8I3NKU5)", "T4 construct": "gene TAS2R41; HEK293T-PEAKrapid cells with Galpha16i/o44", "T4 sequence (A0A8I3NKU5 1-308)": "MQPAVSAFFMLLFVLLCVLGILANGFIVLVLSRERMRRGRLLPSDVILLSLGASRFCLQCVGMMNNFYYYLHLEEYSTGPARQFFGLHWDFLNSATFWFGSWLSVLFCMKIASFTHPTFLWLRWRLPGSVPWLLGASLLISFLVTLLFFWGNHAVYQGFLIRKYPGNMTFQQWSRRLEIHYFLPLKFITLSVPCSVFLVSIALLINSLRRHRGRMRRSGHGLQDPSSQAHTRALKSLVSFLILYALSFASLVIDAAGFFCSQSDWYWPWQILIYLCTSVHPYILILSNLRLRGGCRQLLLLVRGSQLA", "conditions": "agonist; Galpha16i/o44 cells; lowest concentration differing from mock cells; EC50 not determined", "text": "calcium imaging (Cal520-AM), HEK293T cells on dTas2r41"}, "[5]": {"molecular_target": "T5, dTas2r10 (Canis lupus, UniProt Q2ABD4)", "T5 construct": "gene TAS2R10; HEK293T-PEAKrapid cells with Galpha16i/o44", "T5 sequence (Q2ABD4 1-322)": "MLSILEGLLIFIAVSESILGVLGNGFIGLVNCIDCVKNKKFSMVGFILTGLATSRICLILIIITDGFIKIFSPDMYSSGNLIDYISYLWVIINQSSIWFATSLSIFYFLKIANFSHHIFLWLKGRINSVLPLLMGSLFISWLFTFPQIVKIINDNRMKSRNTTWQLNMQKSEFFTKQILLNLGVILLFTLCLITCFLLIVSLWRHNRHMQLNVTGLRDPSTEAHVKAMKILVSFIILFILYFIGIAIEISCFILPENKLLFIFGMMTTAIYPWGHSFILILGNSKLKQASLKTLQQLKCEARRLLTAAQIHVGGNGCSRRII", "text": "calcium imaging (Cal520-AM), HEK293T cells on dTas2r10"}}, "note": "Where two headings read alike, the source gives them in different places."}
{"smiles": "COc1cccc2c1cc([N+](=O)[O-])c1c(C(=O)O)cc3c(c12)OCO3", "note": "[Aristolochic acid I]", "values": [{"measurement": "EC50", "setting": "[1]", "result": 0.19, "unit": "mM"}]}
{"smiles": "OC[C@H]1O[C@H](O[C@]2(CCl)O[C@H](CCl)[C@@H](O)[C@@H]2O)[C@H](O)[C@@H](O)[C@H]1Cl", "note": "[Sucralose]", "values": [{"measurement": "EC50", "setting": "[2]", "result": 42.9, "unit": "mM"}]}
{"smiles": "CC[N+](CC)(CC(=O)Nc1c(C)cccc1C)Cc1ccccc1", "note": "[Denatonium benzoate]", "values": [{"measurement": "EC50", "setting": "[1]; read-out: dTas2r4", "result": 4.35, "unit": "mM"}]}
{"smiles": "O=C1NS(=O)(=O)c2cc([N+](=O)[O-])ccc21", "note": "[6-Nitrosaccharin]", "values": [{"measurement": "dTas2r1", "setting": "[3]", "result": 0.041, "unit": "mM"}, {"measurement": "EC50", "setting": "[1]; read-out: dTas2r4", "result": 1.12, "unit": "mM"}]}
{"smiles": "CC[N+](C)(CC)CCOC(=O)C(O)(c1ccccc1)C1CCCCC1", "note": "(stereo not drawn) [Oxyphenonium bromide]", "values": [{"measurement": "dTas2r41", "setting": "[4]", "result": 11.11, "unit": "mM"}, {"measurement": "EC50", "setting": "[1]; read-out: dTas2r4", "result": 4.76, "unit": "mM"}]}
{"smiles": "CC(=O)OC(C)(C)/C=C/C(=O)[C@](C)(O)[C@H]1[C@H](O)C[C@@]2(C)[C@@H]3CC=C4[C@@H](C[C@H](O)C(=O)C4(C)C)[C@]3(C)C(=O)C[C@]12C", "note": "[Cucurbitacin B]", "values": [{"measurement": "EC50", "setting": "[5]", "result": 2400, "unit": "nM"}]}
{"smiles": "O=c1cc(-c2ccccc2)oc2ccccc12", "note": "[Flavone]", "values": [{"measurement": "dTas2r1", "setting": "[3]", "result": 0.00082, "unit": "mM"}]}
